Molecules are shown by their SMILES. Read-outs that look alike come from different tables or passages of the source.

In one data set the test system is CYP3A4. The conditions noted are these: read-out: IC50, CYP3A4-catalyzed midazolam hydroxylation, cited from earlier work.
The next data set has as its system CYP2D6. The conditions noted are these: read-out: IC50, CYP2D6-mediated dextromethorphan O-demethylation; cited from earlier work.
A further data set concerns CYP2C9. The conditions noted are these: read-out: IC50, CYP2C9-catalyzed tolbutamide hydroxylation; cited from earlier work.
The next data set deals with OATP1B1 (Homo sapiens, UniProt Q9Y6L6). It is filed as cell-based. Set-up: expressed in transfected cells. How it is done: The assays were performed as described recently. Cells were seeded on 96-well plates one day prior to the measurement. After washing three times with PBS at room temperature, cells were incubated for 15 min with 8-acetoxy-1,3,6-trisulfopyrene (Ace, 5 µM). After this “preloading” stage, the supernatant was removed, and the cells were incubated with the same amount of the probe (Counterflow assay) or without the probe in buffer pH 5.5 (Efflux assay) in the absence and the presence of AOH for further 20 min. Fixed concentrations of AOH were selected based on the IC50 values determined in the transport inhibition assay. […]. Cells were washed three times with ice-cold PBS, then NaOH solution (0.1 N, 200 µL/well) was added. After 20 min, fluorescence was measured with an Enspire plate reader in Ex/Em wavelengths 460/510 nm. Bottom reading was applied with two horizontal (X) and two vertical (Y) points, measurement height was 3 mm with 200 flashes. Fluorescence was compared to the preloaded control incubated with Ace alone, considered as 100%.
OATP1B1, sequence (Q9Y6L6 whole entry): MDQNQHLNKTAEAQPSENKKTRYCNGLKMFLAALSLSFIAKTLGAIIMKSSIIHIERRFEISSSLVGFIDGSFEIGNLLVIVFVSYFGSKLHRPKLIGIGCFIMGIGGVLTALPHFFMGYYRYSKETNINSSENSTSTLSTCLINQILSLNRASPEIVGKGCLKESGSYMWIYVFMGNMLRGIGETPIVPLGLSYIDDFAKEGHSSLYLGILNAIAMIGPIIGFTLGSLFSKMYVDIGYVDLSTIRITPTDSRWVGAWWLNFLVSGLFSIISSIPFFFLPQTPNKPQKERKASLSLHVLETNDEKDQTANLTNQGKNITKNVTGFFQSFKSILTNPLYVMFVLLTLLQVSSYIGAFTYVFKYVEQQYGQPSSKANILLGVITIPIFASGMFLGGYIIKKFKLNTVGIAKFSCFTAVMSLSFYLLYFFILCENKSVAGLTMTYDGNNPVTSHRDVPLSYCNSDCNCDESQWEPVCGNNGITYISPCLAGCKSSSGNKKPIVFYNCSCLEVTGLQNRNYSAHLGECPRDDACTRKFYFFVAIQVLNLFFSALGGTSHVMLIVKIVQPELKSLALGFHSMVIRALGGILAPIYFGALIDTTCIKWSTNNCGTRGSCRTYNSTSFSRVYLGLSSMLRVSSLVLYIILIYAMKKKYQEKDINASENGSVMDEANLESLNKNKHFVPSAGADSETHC

As to `CC(=O)OC[C@]12C[C@H](OC(=O)CC(C)C)C(C)=C[C@H]1O[C@@H]1[C@H](O)[C@@H](OC(C)=O)[C@@]2(C)[C@]12CO2` [T-2 toxin], in the data set on CYP3A4, the IC50 – broadly, the concentration that gives 50% inhibition – was 27 µM.

Take `C[C@H]1CCCC(=O)CCC/C=C/c2cc(O)cc(O)c2C(=O)O1` [Zearalenone]: the IC50 in the data set with CYP2D6 is 55.4 µM; in the data set with CYP3A4 (in vitro), 1.1 µM; in the data set with CYP2C9, 0.54 µM.

With `C=O` [formaldehyde], the “fluorescence signal in the CCF” value on OATP1B1 is “no change in the fluorescence”. For the same molecule, on OATP1B1 (pH 5.5), the “effect on efflux of the probe” value is “blocks the efflux”.
